pEC50, pIC50: −log10 of the molar value.
Assays:
[1] = test system: TNFα production in LPS-stimulated human monocytes; test: Cot Monocyte TNFα Cell Based Assay; details: Homo sapiens, Monocyte, LPS-stimulated human monocytes, TNFα TR-FRET; read-out: EC50 TNF
How it was run: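 TNFα release quantified by two-antibody TR-FRET, normalised to unstimulated (0%) and LPS-stimulated (100%) wells. Cells got a 1 h compound exposure at 37° C in 0.5% DMSO before 4 h challenge with 50 pg/ml LPS, at 5,000 cells/well.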

[2] = biological target: T1, human Cot catalytic domain (30-397 amino acids) (Homo sapiens, UniProt P41279); test: High Throughput Cot Biochemical Assay (KinEASE TR-FRET); details: Cot KinEASE TR-FRET, 400 μM ATP; read-out: IC50 HTRF
T1 construct: Purified recombinant human Cot catalytic domain (30-397 amino acids) was purchased from Cama Biosciences; purchased Cama Biosciences (so in the source)
T1 sequence (P41279 30-397): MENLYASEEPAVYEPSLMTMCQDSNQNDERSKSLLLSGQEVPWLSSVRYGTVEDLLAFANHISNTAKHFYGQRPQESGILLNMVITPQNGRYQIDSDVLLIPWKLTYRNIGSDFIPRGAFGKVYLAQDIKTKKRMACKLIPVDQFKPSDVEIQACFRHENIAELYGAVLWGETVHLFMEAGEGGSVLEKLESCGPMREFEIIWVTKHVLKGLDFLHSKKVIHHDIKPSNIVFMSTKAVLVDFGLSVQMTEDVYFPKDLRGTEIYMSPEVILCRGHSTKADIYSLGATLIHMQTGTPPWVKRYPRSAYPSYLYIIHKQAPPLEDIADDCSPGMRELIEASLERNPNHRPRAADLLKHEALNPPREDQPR
How it was run: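 TR-FRET (KinEASE) read-out: Eu-labelled phospho-specific antibody binds XL665-tagged STK3 peptide (1 μM) phosphorylated by 5 nM human Cot kinase domain (residues 30-397). Reaction at 400 μM ATP, pH 7.0 MOPS buffer with 10 mM MgOAc, 1 mM DTT and 0.1% DMSO.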

Row | SMILES | pEC50 [1] | pIC50 [2]
1 | Cc1c([C@H](Nc2cc(Cl)c3ncc(C#N)c(NCC(C)(C)C)c3c2)c2cn(C3(C(F)(F)F)CC3)nn2)cccc1-n1nccn1 [Example 1039, (S)-8-chloro-6-(((2-methyl-3-(2H-1,2,3-triazol-2-yl)phenyl)(1-(1-(trifluoromethyl)cyclopropyl)-1H-1,2,3-triazol-4-yl)methyl)amino)-4-(neopentylamino)quinoline-3-carbonitrile] | 6.30 | 7.72
2 | Cc1c([C@H](Nc2cc(Cl)c3ncc(C#N)c(NCC(C)(C)C)c3c2)c2cn(C3(C(F)(F)F)CC3)nn2)cccc1-n1cncn1 [Example 1040, (S)-8-chloro-6-(((2-methyl-3-(1H-1,2,4-triazol-1-yl)phenyl)(1-(1-(trifluoromethyl)cyclopropyl)-1H-1,2,3-triazol-4-yl)methyl)amino)-4-(neopentylamino)quinoline-3-carbonitrile] | 7.06 | 8.40
3 | Cc1c([C@H](Nc2cc(Cl)c3ncc(C#N)c(NCC(C)(C)C)c3c2)c2cn(C3(C(F)(F)F)CC3)nn2)cccc1-n1ccnc1 [Example 1041, (S)-6-(((3-(1H-imidazol-1-yl)-2-methylphenyl)(1-(1-(trifluoromethyl)cyclopropyl)-1H-1,2,3-triazol-4-yl)methyl)amino)-8-chloro-4-(neopentylamino)quinoline-3-carbonitrile] | 7.07 | 8.40
4 | Cc1c([C@H](Nc2cc(C#N)c3ncc(C#N)c(NCC(C)(C)C)c3c2)c2cn(C3(C(F)(F)F)CC3)nn2)cccc1-n1ccnc1 [Example 1042] | 6.98 | 8.70
5 | Cc1c([C@H](Nc2cc(C#N)c3ncc(C#N)c(NCC(C)(C)C)c3c2)c2cn(C3(C(F)(F)F)CC3)nn2)cccc1-n1cncn1 [Example 1043, (S)-6-(((2-methyl-3-(1H-1,2,4-triazol-1-yl)phenyl)(1-(1-(trifluoromethyl)cyclopropyl)-1H-1,2,3-triazol-4-yl)methyl)amino)-4-(neopentylamino)quinoline-3,8-dicarbonitrile] | 6.96 | 8.52
6 | Cc1c([C@H](Nc2cc(C#N)c3ncc(C#N)c(NCC(C)(C)C)c3c2)c2cn(C3(C(F)(F)F)CC3)nn2)cccc1-n1nccn1 [Example 1044, (S)-6-(((2-methyl-3-(2H-1,2,3-triazol-2-yl)phenyl)(1-(1-(trifluoromethyl)cyclopropyl)-1H-1,2,3-triazol-4-yl)methyl)amino)-4-(neopentylamino)quinoline-3,8-dicarbonitrile] | 6.67 | 8.10
7 | Cc1c([C@H](Nc2cc(C#N)c3ncc(C#N)c(NCC(C)(C)C)c3c2)c2cn(C3(C(F)(F)F)CC3)nn2)cccc1-n1cccn1 [Example 1045, (S)-6-(((2-methyl-3-(1H-pyrazol-1-yl)phenyl)(1-(1-(trifluoromethyl)cyclopropyl)-1H-1,2,3-triazol-4-yl)methyl)amino)-4-(neopentylamino)quinoline-3,8-dicarbonitrile] | 6.57 | 8.30
8 | [2H]c1c([C@@]([2H])(Nc2cc(Cl)c3ncc(C#N)c(NCC(C)(C)C)c3c2)c2c(F)cccc2Cl)nnn1C1(C)CC1 [Example 1046, (S)-8-chloro-6-(((2-chloro-6-fluorophenyl)(1-(1-methylcyclopropyl)-1H-1,2,3-triazol-4-yl-5-d)methyl-d)amino)-4-(neopentylamino)quinoline-3-carbonitrile] | ≤ 6.00 | 6.85
9 | [2H][C@@](Nc1cc(Cl)c2ncc(C#N)c(NCC(C)(C)C)c2c1)(c1cn(C2(C)CC2)nn1)c1c(F)cccc1Cl [Example 1047, (S)-8-chloro-6-(((2-chloro-6-fluorophenyl)(1-(1-methylcyclopropyl)-1H-1,2,3-triazol-4-yl)methyl-d)amino)-4-(neopentylamino)quinoline-3-carbonitrile] | ≤ 6.00 | 7.00
10 | [2H]c1c([C@@]([2H])(Nc2cc(C#N)c3ncc(C#N)c(NCC(C)(C)C)c3c2)c2c(F)cccc2Cl)nnn1C1(C)CC1 [Example 1048, (S)-6-(((2-chloro-6-fluorophenyl)(1-(1-methylcyclopropyl)-1H-1,2,3-triazol-4-yl-5-d)methyl-d)amino)-4-(neopentylamino)quinoline-3,8-dicarbonitrile] | 6.20 | 7.48
11 | Cc1c([C@H](Nc2cc(Cl)c3ncc(C#N)c(NCC(C)(C)C)c3c2)c2cn(C3(C(F)F)CC3)nn2)cccc1-n1cncn1 [Example 1049, (S)-8-chloro-6-(((1-(1-(difluoromethyl)cyclopropyl)-1H-1,2,3-triazol-4-yl)(2-methyl-3-(1H-1,2,4-triazol-1-yl)phenyl)methyl)amino)-4-(neopentylamino)quinoline-3-carbonitrile] | 7.46 | 8.70
12 | Cc1c(-c2ncco2)cccc1[C@H](Nc1cc(Cl)c2ncc(C#N)c(NCC(C)(C)C)c2c1)c1cn(C2(C(F)(F)F)CC2)nn1 [Example 1050, (S)-8-chloro-6-(((2-methyl-3-(oxazol-2-yl)phenyl)(1-(1-(trifluoromethyl)cyclopropyl)-1H-1,2,3-triazol-4-yl)methyl)amino)-4-(neopentylamino)quinoline-3-carbonitrile] | 6.69 | 8.15
13 | Cc1c(-c2ncco2)cccc1[C@H](Nc1cc(Cl)c2ncc(C#N)c(NCC(C)(C)C)c2c1)c1cn(C2(C(F)F)CC2)nn1 [Example 1051, (S)-8-chloro-6-(((1-(1-(difluoromethyl)cyclopropyl)-1H-1,2,3-triazol-4-yl)(2-methyl-3-(oxazol-2-yl)phenyl)methyl)amino)-4-(neopentylamino)quinoline-3-carbonitrile] | 6.79 | 8.40
14 | CC(C)(C)CNc1c(C#N)cnc2c(Br)cc(N[C@H](c3cn(Cc4c(F)cccc4F)nn3)c3ccccc3Cl)cc12 [Example 1052, (S)-8-bromo-6-(((2-chlorophenyl)(1-(2,6-difluorobenzyl)-1H-1,2,3-triazol-4-yl)methyl)amino)-4-(neopentylamino)quinoline-3-carbonitrile] | ≤ 6.00 | 6.72

Other lines, results leading:

Row | pEC50 [1] | pIC50 [2] | SMILES
15 | 6.70 | 7.59 | CC(C)(C)CNc1c(C#N)cnc2c(C#N)cc(N[C@H](c3cn(Cc4c(F)cccc4F)nn3)c3ccccc3Cl)cc12 [Example 1053, (S)-6-(((2-chlorophenyl)(1-(2,6-difluorobenzyl)-1H-1,2,3-triazol-4-yl)methyl)amino)-4-(neopentylamino)quinoline-3,8-dicarbonitrile]
16 | 7.09 | 9.00 | Cc1c([C@H](Nc2cc(C#N)c3ncc(C#N)c(NCC(C)(C)C)c3c2)c2cn(C3(C(F)F)CC3)nn2)cccc1-n1cncn1 [Example 1054, (S)-6-(((1-(1-(difluoromethyl)cyclopropyl)-1H-1,2,3-triazol-4-yl)(2-methyl-3-(1H-1,2,4-triazol-1-yl)phenyl)methyl)amino)-4-(neopentylamino)quinoline-3,8-dicarbonitrile]
17 | 7.00 | 8.52 | Cc1c(-c2ncco2)cccc1[C@H](Nc1cc(C#N)c2ncc(C#N)c(NCC(C)(C)C)c2c1)c1cn(C2(C(F)(F)F)CC2)nn1 [Example 1055, (S)-6-(((2-methyl-3-(oxazol-2-yl)phenyl)(1-(1-(trifluoromethyl)cyclopropyl)-1H-1,2,3-triazo1-4-yl)methyl)amino)-4-(neopentylamino)quinoline-3,8-dicarbonitrile]
18 | 7.20 | 8.70 | Cc1c(-c2ncco2)cccc1[C@H](Nc1cc(C#N)c2ncc(C#N)c(NCC(C)(C)C)c2c1)c1cn(C2(C(F)F)CC2)nn1 [Example 1056, (S)-6-(((1-(1-(difluoromethyl)cyclopropyl)-1H-1,2,3-triazol-4-yl)(2-methyl-3-(oxazol-2-yl)phenyl)methyl)amino)-4-(neopentylamino)quinoline-3,8-dicarbonitrile]
19 | 7.14 | 8.40 | Cc1c([C@H](Nc2cc(Cl)c3ncc(C#N)c(NCC(C)(C)C)c3c2)c2cn(C3(C(F)(F)F)CC3)nn2)cccc1-n1cnnn1 [Example 1057, (S)-8-chloro-6-(((2-methyl-3-(1H-tetrazol-1-yl)phenyl)(1-(1-(trifluoromethyl)cyclopropyl)-1H-1,2,3-triazol-4-yl)methyl)amino)-4-(neopentylamino)quinoline-3-carbonitrile]
20 | 6.26 | 7.12 | CC(C)(C)CNc1c(C#N)cnc2c(Cl)cc(N[C@@H](c3ccccc3)c3cn(C4(C(F)(F)F)CC4)nn3)cc12 [Example 1059, (S)-8-chloro-4-(neopentylamino)-6-((phenyl(1-(1-(trifluoromethyl)cyclopropyl)-1H-1,2,3-triazol-4-yl)methyl)amino)quinoline-3-carbonitrile]
21 | 6.51 | 7.48 | Cc1ccccc1[C@H](Nc1cc(Cl)c2ncc(C#N)c(NCC(C)(C)C)c2c1)c1cn(C2(C(F)F)CC2)nn1 [Example 1060, (S)-8-chloro-6-(((1-(1-(difluoromethyl)cyclopropyl)-1H-1,2,3-triazol-4-yl)(o-tolyl)methyl)amino)-4-(neopentylamino)quinoline-3-carbonitrile]
22 | 6.21 | 7.07 | Cc1ccccc1[C@H](Nc1cc(Cl)c2ncc(C#N)c(NCC(C)(C)C)c2c1)c1cn(C2(C(F)(F)F)CC2)nn1 [Example 1061, (S)-8-chloro-4-(neopentylamino)-6-((o-tolyl(1-(1-(trifluoromethyl)cyclopropyl)-1H-1,2,3-triazol-4-yl)methyl)amino)quinoline-3-carbonitrile]
